Test results published in US6060257A, “Tumor rejection antigens presented by HLA-B44 molecules, and uses thereof” (Ludwig Institute for Cancer Research, priority 1996, dated 2000).

Molecular target: T1, HLA-B*4402 (Homo sapiens, UniProt P01889, A223V/A65T/A93T/A95T/D201E/D98Y/E176V/E187L/E204Q/E69K/G107R/H137Y/K202T/L105A/L119I/N104T/N87E/Q56L/Q94N/R106L/R155S/R180D/S101N/S121R/S35A/S48T/T118I/V36M/W191S/Y140D/Y91S)
T1 construct: expressed in transfected cells; host or cells: C1R cells (MHC class I negative, EBV-transformed lymphoblastoid)
Test: Competitive assay: inhibition of CTL 159/5 lysis of C1R-B*4402 cells sensitized with SEQ ID NO: 18
Format: cell-based
Conditions: C1R-B44 cells (B*4402 and B*4403 transfectants)

Gin Glu Glu Gly Pro Ser Thr Phe [SEQ ID NO: 20]
inhibition of lysis of C1R-B44 cells (indicates binding to HLA-B44 molecules): did inhibit lysis
